Test results reported in US12318488B2, “Solid dosage form production” (University of Central Lancashire, priority 2018, dated 2025).
Each block holds one molecule with its values, some of them ahead of it.

How the values were obtained:
Format in all cases: physicochemical
[1] = Drug content analysis via HPLC of extruded filaments and 3D printed tablets; conditions: percentage recovery of the active ingredient
Experimental: Filaments were prepared with the target concentration of components as detailed in Table III. 10 g of the dry ingredients (% weights according to Table III) was blended with 2 g of distilled non-ionised water (temporary plasticiser) using a mortar and pestle. The resulting blends were fed to a hot melt extruder at 90° C. and mixed at 100 rpm. A Thermo Scientific HAAKE MiniCTW hot melt extruder (Karlsruhe, Germany) was used to prepare the filaments. The filaments were dried for 1 hour at 100° C. in a drying and heating chamber (Binder Inc., series ED, Tuttinglen, Germany) and then used in 3D printing using the methodology described in Example 2 (i.e., nozzle temperature of 150° C.).
A HPLC method was developed and validated in order to assess the assay of the active substances in the extruded filaments and the 3D printed tablets. Each sample was accurately weighed (approximately 5 mg) and placed in a 1000 ml volumetric flask and dissolved in a mixture of water:acetonitrile:methanol (80:10:10). The solutions were then filtered through an Econofltr 0.2 μm syringe (Agilent Technologies Ltd., Cheadle, UK) and analysed by HPLC.
Lisinopril dihydrate, indapamide, rosuvastatin calcium and amlodipine content was assessed using Agilent UV-HPLC 1260 series (Agilent Technologies, Germany) equipped with a synergy max column (250×4.6 mm, 4 μm particle size), at temperature of 50° C. The analysis was carried out at 210 nm wavelength, flow rate 1 mL/min, injection volume was 100 μl and run time of 35 minutes. The mobile phase consisted of acetonitrile (A) and buffer pH3 (B) (which was prepared by adjustment of the pH of distilled water with phosphoric acid) according to the gradient in Table IV. Drug assay of the multi-layer polypill I (prepared from the uni-matrix) was assessed based on the assumption that each layer corresponds to an equal part of the tablet.

[2] = HPLC analysis of hydrocortisone content in extruded filament and FDM 3D printed tablet at different drug loadings; conditions: for Drug potency in filament average ± SD (n = 3): Eudragit EPO filament, HME 90° C.; for Drug potency in FDM 3D printed average ± SD (n = 3): nozzle 135° C.
Experimental: Filaments were compounded according to the formulation in Table VIII using Thermo Fisher Haake MiniCTW compounder. The extruder speed was set at 35 rpm and temperature at 90° C.
Tablets were constructed with the pre-prepared filaments using a commercial FDM 3D printer equipped with 0.4 mm nozzle size. The templates used to print the tablets were designed in a caplet shape using Autodeski 3ds Maxi Design 2012 software version 14.0 (Autodesk, Inc., USA). The design was saved in a stereo-lithography (.stl) file format and was imported to the 3D software, MakerWare Version 3.9.1.1143 (Makerbot Industries, LLC., USA). Tablets were printed using modified settings of the software for PLA: as follows: type of printer: Replicator 2×; resolution: standard; speed of extruder 90 mm/s while extruding and 150 mm/s while traveling; infill: 100%; height of the layer: […]. No supports or rafts were utilized. The temperatures for the nozzle and build plate of the 3D printer were 135° C. and 60° C. respectively. Blue Scotch painter's tape was applied to the build platform to facilitate the adherence of the printed object during FDM 3D printing.
• Hydrocortisone content was assessed using HPLC using the following conditions: • Mobile phase: water:acetonitrile 1:1. • Stationary phase: Phenomenex® column Synergi Polar RP column with particle size 4 μm with 80 Å • pores, length of 250 mm • Column temperature: 35° C. • Injection Volume: 10 μL. • Flow rate: 1 mL/min • Detection: UV, 254 nm
The blend powder, the extruded filament or the printed tablet were placed into a 500 mL volumetric flask along with HCl. The flasks were sonicated for 30 minutes, followed by allowing the solutions to cool back to room temperature (approximately 30 minutes). A 10 mL syringe was filled with the resulting solution. A filter was added to the syringe; the first 5 mL was discarded, the second 5 mL used to fill a HPLC vial.

[3] = HPLC analysis of API content in filaments and 3D printed tablets after hot melt extrusion and FDM 3D printing; conditions: for Residual Percentage (potency of drug following HME): Filament; for Residual Percentage (potency of drug following HME and FDM 3D printing): Tablets
Experimental: Filaments containing individual drugs at different concentration were produced to achieve the individual target dose of each model drug. A Thermo Scientific HAAKE MiniCTW hot melt extruder (Karlsruhe, Germany) was used to prepare the filaments. Blank (drug-free) and individual drug loaded filaments were prepared by blending 10 g of dry ingredients (composition according to Table I) with additional 2 g of distilled water (temporary plasticiser) (Table 1) using mortar and pestle. This blend mixture was then fed to the hot melt extruder at 90° C. and mixed at 100 rpm, nozzle size of 1.5 mm. The filaments were extruded at the same temperature at 35 rpm. The extruded filaments were dried at 100° C. at 0% RH for 1 hour in a FD240 Binder heating chamber (Tuttlingen, Germany). For comparison purposes, a filament was also extruded without water at an extrusion temperature of 180° C. and a mixing rate of 100 rpm.
The tablets printed were designed using Autodesk® 3ds Max Design 2016 software version 18.0 (Autodesk, Inc., USA). The designs were then imported to the computer software in stereolithographic (STL) format. The extruded filaments were printed by a Makerbot 2×3D printer (Makerbot Industries, NY, USA) fitted with 0.4 mm nozzle and controlled by Simplify 3D software version 4.0 (Cincinnati, OH, USA). Printing took place using nozzle and building plate temperatures of 150 and 40° C. respectively. The tablets were printed following a concentric fill pattern and 100% infill with a layer thickness of 166 μm. For comparison reasons, tablets (without addition of water) were printed following the same settings as above but at nozzle temperature of 210° C.
The HPLC analysis was performed using Agilent 1260 series UV-HPLC (Agilent Technologies, Germany) equipped with a Synergi Polar column (250×4.6 mm, 4 μm particle size) (Phenomenex, Macclesfield, UK) at 35° C. The analysis was carried out at a detection wavelength of 254 nm, flow rate of 1 mL/min, injection volume of 100 μL and a 4 minute run time. The mobile phase consisted of a 1:1 mixture of solvent A (acetonitrile) and solvent B (water).
For theophylline, the same UV-HPLC system and column were used as detailed above for hydrocortisone. The mobile phase constituted of 10 mM solution of ammonium acetate buffer, methanol and acetonitrile (86:7:7). Analysis was carried out at a wavelength of 272 nm, temperature of 40° C., flow rate of 1 ml/min, injection volume of 5 μL and a run time of 7 min.
In order to examine the effect of hot melt extrusion (HME) and FDM 3D printing on the integrity of the active pharmaceutical ingredient (API), API-loaded filaments were analysed for API content post drying as well as in the 3D printed tablets. Samples (API loaded filaments or tablets) were accurately weighed and placed in 250 mL of 1:1 water:acetonitrile mixture for 2 hour under sonication. The solutions were filtered through 0.22 μm Millex-GP syringe filters (Merck Millipore, USA) and prepared for HPLC analysis.

[4] = 3D printed at nozzle temperature 150° C., in %
[5] = HME 90° C., dried 1 hour at 100° C., in %
[6] = 3D printed at nozzle temperature 150° C.
[7] = HME 90° C., dried 1 hour at 100° C.
[8] = no temporary plasticiser, 180° C. for HME
[9] = temporary plasticiser (water), 90° C. for HME
[10] = no temporary plasticiser, 180° C. for HME followed by 210° C. for 3D-printing
[11] = temporary plasticiser, 90° C. for HME followed by 150° C. for 3D-printing

- Drug contents in tablets, Rosuvastatin [1, 4]: 95.4 ± 2.37
- Drug contents in filament, Rosuvastatin [1, 5]: 98.2 ± 1.09
SMILES: CC(C)c1nc(N(C)S(C)(=O)=O)nc(-c2ccc(F)cc2)c1/C=C/[C@@H](O)C[C@@H](O)CC(=O)[O-].CC(C)c1nc(N(C)S(C)(=O)=O)nc(-c2ccc(F)cc2)c1/C=C/[C@@H](O)C[C@@H](O)CC(=O)[O-].[Ca+2] [Rosuvastatin calcium, rosuvastatin calcium]

- Drug contents in tablets, Amlodipine [1, 6]: 90.68 ± 2.28
- Drug contents in filament, Amlodipine [1, 7]: 97.89 ± 1.94
SMILES: CCOC(=O)C1=C(COCCN)NC(C)=C(C(=O)OC)C1c1ccccc1Cl (centres unmarked) [Amlodipine besylate, amlodipine besylate]

- Drug potency in filament average ± SD (n = 3) ([2]; Drug Concentration 1%): 85.97 ± 0.14%
- Drug potency in FDM 3D printed average ± SD (n = 3) ([2]; Drug Concentration 1%): 75.13 ± 0.62%
- Drug potency in filament average ± SD (n = 3) ([2]; Drug Concentration 5%): 92.25 ± 0.21%
- Drug potency in FDM 3D printed average ± SD (n = 3) ([2]; Drug Concentration 5%): 95.4 ± 4.3%
- Drug potency in filament average ± SD (n = 3) ([2]; Drug Concentration 10%): 99 ± 0.34%
- Drug potency in FDM 3D printed average ± SD (n = 3) ([2]; Drug Concentration 10%): 98.2 ± 0.45%
- Residual Percentage (potency of drug following HME) [3, 8]: 19.98%
- Residual Percentage (potency of drug following HME) ([3]; no temporary plasticiser, 180° C. for HME, listed as hydrocortisone): 20%
- Residual Percentage (potency of drug following HME) [3, 9]: 100.9%
- Residual Percentage (potency of drug following HME) ([3]; temporary plasticiser (water), 90° C. for HME, listed as hydrocortisone): 100%
- Residual Percentage (potency of drug following HME and FDM 3D printing) [3, 10]: 3.02%
- Residual Percentage (potency of drug following HME and FDM 3D printing) ([3]; no temporary plasticiser, 180° C. for HME followed by 210° C. for 3D-printing, listed as hydrocortisone): 3.02%
- Residual Percentage (potency of drug following HME and FDM 3D printing) [3, 11]: 48.6%
- Residual Percentage (potency of drug following HME and FDM 3D printing) ([3]; temporary plasticiser, 90° C. for HME followed by 150° C. for 3D-printing, listed as hydrocortisone): 48.6%
SMILES: C[C@]12CCC(=O)C=C1CC[C@@H]1[C@@H]2[C@@H](O)C[C@@]2(C)[C@H]1CC[C@]2(O)C(=O)CO [Hydrocortisone]

- Residual Percentage (potency of drug following HME) [3, 8]: 100.61%
- Residual Percentage (potency of drug following HME) [3, 9]: 100%
- Residual Percentage (potency of drug following HME and FDM 3D printing) [3, 10]: 100.53%
- Residual Percentage (potency of drug following HME and FDM 3D printing) [3, 11]: 100.2%
SMILES: Cn1c(=O)c2[nH]cnc2n(C)c1=O [Theophylline]

- Drug contents in tablets, Indapamide [1, 4]: 96.06 ± 2.06
- Drug contents in filament, Indapamide [1, 5]: 93.32 ± 1.67
SMILES: CC1Cc2ccccc2N1NC(=O)c1ccc(Cl)c(S(N)(=O)=O)c1 (centres unmarked) [Indapamide, indapamide]

- Drug contents in tablets, Lisinopril [1, 6]: 87.8 ± 1.5
- Drug contents in filament, Lisinopril [1, 7]: 93.9 ± 1.66
SMILES: NCCCC[C@H](N[C@@H](CCc1ccccc1)C(=O)O)C(=O)N1CCC[C@H]1C(=O)O [Lisinopril dihydrate]
